Laboratory results taken from PubChem BioAssay (NCI).
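In this assay, cells in 96-well plates receive the compound at five concentrations for 48 hours. Endpoints are linearly interpolated between the surrounding concentrations. GI50 = concentration required for 50% inhibition of growth. TGI: total growth inhibition.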

Tests used:
Assay in all cases: DTP human tumour cell line panel, 48 h
[1] = system: UACC-62 melanoma
[2] = system: OVCAR-3 ovarian
[3] = system: K-562 leukemia
[4] = system: A498 renal
[5] = system: SR leukemia
[6] = system: MALME-3M melanoma
[7] = system: OVCAR-4 ovarian
[8] = system: CCRF-CEM leukemia
[9] = system: IGROV1 ovarian
[10] = system: SF-268 CNS
[11] = system: SK-MEL-2 melanoma
[12] = system: MDA-MB-231 breast
[13] = system: SF-539 CNS
[14] = system: EKVX NSCLC
[15] = system: SNB-19 CNS
[16] = system: HT29 colon
[17] = system: HOP-92 NSCLC
[18] = system: CAKI-1 renal
[19] = system: TK-10 renal
[20] = system: MCF7 breast
[21] = system: RPMI-8226 leukemia
[22] = system: SF-295 CNS
[23] = system: HCT-15 colon
[24] = system: SK-MEL-28 melanoma
[25] = system: NCI-H23 lung
[26] = system: DU-145 prostate
[27] = system: NCI-H226 lung
[28] = system: UO-31 renal
[29] = system: SW-620 colon
[30] = system: OVCAR-8 ovarian
[31] = system: COLO 205 colon
[32] = system: PC-3 prostate
[33] = system: SK-OV-3 ovarian
[34] = system: KM12 colon
[35] = system: SK-MEL-5 melanoma
[36] = system: NCI-H460 lung
[37] = system: A549 NSCLC
[38] = system: BT-549 breast
[39] = system: UACC-257 melanoma
[40] = system: NCI/ADR-RES ovarian
[41] = system: OVCAR-5 ovarian
[42] = system: LOX IMVI melanoma
[43] = system: ACHN renal
[44] = system: HCT-116 colon
[45] = system: NCI-H522 lung
[46] = system: HOP-62 NSCLC
[47] = system: MOLT-4 leukemia
[48] = system: T-47D breast
[49] = system: HS 578T breast
[50] = system: M14 melanoma
[51] = system: U251 CNS
[52] = system: MDA-MB-435
[53] = system: RXF 393 renal
[54] = system: HL-60(TB) leukemia
[55] = system: 786-0 renal
[56] = system: SNB-75 CNS
[57] = system: HCC-2998 colon
[58] = system: SN12C renal

CN(C)c1ccc2c(c1)OC(N)=C(C#N)C2c1ccc2c(c1)CCCN2C (centres undefined)
GI50 [1]: 1550 nM | TGI [1]: 33.9 µM | GI50 [2]: 0.691 µM | TGI [2]: 10.3 µM | GI50 [3]: 493 nM | TGI [3]: > 100 µM | GI50 [4]: 0.228 µM | TGI [4]: 4.07 µM | GI50 [5]: 0.648 µM | TGI [5]: 16.6 µM | GI50 [6]: 16.3 µM | TGI [6]: 58.9 µM | GI50 [7]: 5.01 µM | TGI [7]: > 100 µM | GI50 [8]: 3.01 µM | TGI [8]: 49.2 µM | GI50 [9]: 4.03 µM | TGI [9]: > 100 µM | GI50 [10]: 6.85 µM | TGI [10]: > 100 µM | GI50 [11]: 1.68 µM | TGI [11]: 28.6 µM | GI50 [12]: 3.52 µM | TGI [12]: > 100 µM | GI50 [13]: 2280 nM | TGI [13]: 8.16 µM | GI50 [14]: 3.79 µM | TGI [14]: > 100 µM | GI50 [15]: 4.26 µM | TGI [15]: > 100 µM | GI50 [16]: 2620 nM | TGI [16]: 8.23 µM | GI50 [17]: 2820 nM | TGI [17]: 57 µM | GI50 [18]: 3.33 µM | TGI [18]: > 100 µM | GI50 [19]: 10.2 µM | TGI [19]: 91.7 µM | GI50 [20]: 444 nM | TGI [20]: 33.4 µM | GI50 [21]: 4.07 µM | TGI [21]: 31 µM | GI50 [22]: 0.708 µM | TGI [22]: 6.51 µM | GI50 [23]: 789 nM | TGI [23]: > 100 µM | GI50 [24]: 11 µM | TGI [24]: 86.3 µM | GI50 [25]: 2.83 µM | TGI [25]: 92.1 µM | GI50 [26]: 3.51 µM | TGI [26]: > 100 µM | GI50 [27]: 5.44 µM | TGI [27]: 71 µM | GI50 [28]: 5.15 µM | TGI [28]: 78.5 µM | GI50 [29]: 0.938 µM | TGI [29]: > 100 µM | GI50 [30]: 3.2 µM | TGI [30]: 27.5 µM | GI50 [31]: 2.44 µM | TGI [31]: 6.51 µM | GI50 [32]: 2.64 µM | TGI [32]: > 100 µM | GI50 [33]: 2.52 µM | TGI [33]: 25.8 µM | GI50 [34]: 783 nM | TGI [34]: > 100 µM | GI50 [35]: 733 nM | TGI [35]: 12.8 µM | GI50 [36]: 1.92 µM | TGI [36]: 24.9 µM | GI50 [37]: 2.03 µM | TGI [37]: > 100 µM | GI50 [38]: 2.03 µM | TGI [38]: 13.2 µM | GI50 [39]: 10.5 µM | TGI [39]: 45.1 µM | GI50 [40]: 1.12 µM | TGI [40]: 9.08 µM | GI50 [41]: 59 µM | TGI [41]: > 100 µM | GI50 [42]: 1.97 µM | TGI [42]: 19.2 µM | GI50 [43]: 4.63 µM | TGI [43]: 64.6 µM | GI50 [44]: 1600 nM | TGI [44]: 14.6 µM | GI50 [45]: 0.274 µM | TGI [45]: 1470 nM | GI50 [46]: 1.83 µM | TGI [46]: 54.1 µM | GI50 [47]: 3.38 µM | TGI [47]: 24.5 µM | GI50 [48]: 11.7 µM | TGI [48]: 51.6 µM | GI50 [49]: 2.13 µM | TGI [49]: > 100 µM | GI50 [50]: 1.29 µM | TGI [50]: 18.5 µM | GI50 [51]: 2.6 µM | TGI [51]: 21.9 µM | GI50 [52]: 305 nM | TGI [52]: 1280 nM | GI50 [53]: 1430 nM | TGI [53]: 5.58 µM | GI50 [54]: 2.81 µM | TGI [54]: 8.7 µM | GI50 [55]: 4.33 µM | TGI [55]: > 100 µM | GI50 [56]: 2270 nM | TGI [56]: > 100 µM

O=S(=O)(NCCCNc1nccc(-c2c(-c3cccc(F)c3)nc3occn23)n1)c1cccc2ccccc12
GI50 [1]: 4280 nM | TGI [1]: > 100 µM | GI50 [57]: 2520 nM | TGI [57]: 5.74 µM | GI50 [2]: 13.5 µM | TGI [2]: > 100 µM | GI50 [3]: 2870 nM | TGI [3]: > 100 µM | GI50 [4]: 8.36 µM | TGI [4]: > 100 µM | GI50 [5]: 8.79 µM | TGI [5]: > 100 µM | GI50 [6]: 5.24 µM | TGI [6]: > 100 µM | GI50 [7]: 7.66 µM | TGI [7]: > 100 µM | GI50 [8]: 5.48 µM | TGI [8]: > 100 µM | GI50 [9]: 3.33 µM | TGI [9]: > 100 µM | GI50 [10]: 7.39 µM | TGI [10]: > 100 µM | GI50 [11]: 6.99 µM | TGI [11]: > 100 µM | GI50 [12]: 3.13 µM | TGI [12]: > 100 µM | GI50 [13]: > 100000 nM | TGI [13]: > 100 µM | GI50 [14]: 6.04 µM | TGI [14]: > 100 µM | GI50 [15]: 9.41 µM | TGI [15]: > 100 µM | GI50 [17]: > 100000 nM | TGI [17]: > 100 µM | GI50 [18]: 3.57 µM | TGI [18]: > 100 µM | GI50 [19]: 11 µM | TGI [19]: > 100 µM | GI50 [20]: 4070 nM | TGI [20]: > 100 µM | GI50 [21]: 4.86 µM | TGI [21]: > 100 µM | GI50 [22]: 5.5 µM | TGI [22]: > 100 µM | GI50 [23]: 3310 nM | TGI [23]: > 100 µM | GI50 [24]: 23.6 µM | TGI [24]: > 100 µM | GI50 [25]: 14.8 µM | TGI [25]: > 100 µM | GI50 [26]: 6.97 µM | TGI [26]: > 100 µM | GI50 [27]: 5.12 µM | TGI [27]: > 100 µM | GI50 [28]: 3.25 µM | TGI [28]: > 100 µM | GI50 [29]: 6.91 µM | TGI [29]: > 100 µM | GI50 [30]: 7.02 µM | TGI [30]: > 100 µM | GI50 [31]: 4.64 µM | TGI [31]: > 100 µM | GI50 [32]: 3.38 µM | TGI [32]: > 100 µM | GI50 [33]: 3.76 µM | TGI [33]: > 100 µM | GI50 [34]: 3800 nM | TGI [34]: > 100 µM | GI50 [35]: 3670 nM | TGI [35]: 43.6 µM | GI50 [36]: 4.79 µM | TGI [36]: > 100 µM | GI50 [37]: 6.67 µM | TGI [37]: > 100 µM | GI50 [38]: 4.44 µM | TGI [38]: > 100 µM | GI50 [39]: 21 µM | TGI [39]: > 100 µM | GI50 [58]: 3.44 µM | TGI [58]: > 100 µM | GI50 [40]: 5.52 µM | TGI [40]: > 100 µM | GI50 [41]: 9.6 µM | TGI [41]: > 100 µM | GI50 [42]: 4.28 µM | TGI [42]: > 100 µM | GI50 [43]: 3.64 µM | TGI [43]: > 100 µM | GI50 [44]: 3710 nM | TGI [44]: > 100 µM | GI50 [45]: 9.17 µM | TGI [45]: > 100000 nM | GI50 [46]: 97.1 µM | TGI [46]: > 100 µM | GI50 [47]: 3.54 µM | TGI [47]: > 100 µM | GI50 [48]: 2.59 µM | TGI [48]: > 100 µM | GI50 [49]: 8.36 µM | TGI [49]: > 100 µM | GI50 [50]: 5.75 µM | TGI [50]: > 100 µM | GI50 [51]: 8.89 µM | TGI [51]: > 100 µM | GI50 [52]: 3750 nM | TGI [52]: > 100000 nM | GI50 [54]: 4.21 µM | TGI [54]: 72.2 µM | GI50 [55]: 4.94 µM | TGI [55]: > 100 µM | GI50 [56]: 3380 nM | TGI [56]: > 100 µM
